Laboratory results published in patent US10766869B2, “Triazoles for the treatment of demyelinating dieases” (Vertex Pharmaceuticals Incorporated, priority 2015, dated 2020).

Tested on: primary rat mixed cortical cells
Assay: In vitro myelination assay (MBP positive myelin strands, fold myelin pixels above background)
Assay type: cell-based
Details: Rattus norvegicus, read-out: Fold myelin pixels above background relative to baseline of no added compound; for fold induction at 1 µM: 1.0 μM compound; for fold induction at 10 µM: 10.0 μM compound
Procedure, shortened: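 P1 rat cortical cells (neurons, OPCs, oligodendrocytes, astrocytes, microglia) were cultured 14 days at 37 °C with compound, with half-medium changes containing 1× compound on days 6 and 10. Fixed cells were immunostained for MBP and imaged at 10×. Total MBP myelin pixels per well were expressed as fold above no-compound baseline at 1.0 μM and 10.0 μM.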

SMILES | fold induction at 1 µM | fold induction at 10 µM
Cc1cc(Nc2ncn(-c3cc(F)cc(F)c3)n2)cc(N2CCC(N3CCCC3)CC2)c1 [Compound 1038, 1-(3,5-difluorophenyl)-N-[3-methyl-5-(4-pyrrolidin-1-yl-1-piperidyl)phenyl]-1,2,4-triazol-3-amine] | 1 to 10 | 10 to 100
[2H]C1(N2CCN(c3cc(C)cc(Nc4ncn(-c5ccccc5)n4)c3)CC2)CCOC1 (centres unmarked) [Compound 1039, N-[3-[4-(3-deuteriotetrahydrofuran-3-yl)piperazin-1-yl]-5-methyl-phenyl]-1-phenyl-1,2,4-triazol-3-amine] | 10 to 100 | ≤ 1
Cc1cc(Nc2ncn(-c3cc(F)cc(F)c3)n2)cc(N2CCC(N3CCC(O)C3)C2)c1 (centres unmarked) [Compound 1040, 1-[1-[3-[[1-(3,5-difluorophenyl)-1,2,4-triazol-3-yl]amino]-5-methyl-phenyl]pyrrolidin-3-yl]pyrrolidin-3-ol] | 10 to 100 | ≤ 1
[2H]C1([2H])N(C(=O)C2CC2)C([2H])([2H])C([2H])([2H])N(c2cc(Nc3ncn(-c4cc(F)cc(F)c4)n3)cc(C(F)F)c2)C1([2H])[2H] [Compound 1041, cyclopropyl-[2,2,3,3,5,5,6,6-octadeuterio-4-[3-(difluoromethyl)-5-[[1-(3,5-difluorophenyl)-1,2,4-triazol-3-yl]amino]phenyl]piperazin-1-yl]methanone] | 1 to 10 | 1 to 10
[2H]C1([2H])N(c2cc(C)cc(Nc3ncn(-c4cc(F)cc(F)c4)n3)c2)C([2H])([2H])C([2H])([2H])N(C2CCOC2)C1([2H])[2H] (centres unmarked) [Compound 1042, 1-(3,5-difluorophenyl)-N-[3-methyl-5-(2,2,3,3,5,5,6,6-octadeuterio-4-tetrahydrofuran-3-yl-piperazin-1-yl)phenyl]-1,2,4-triazol-3-amine] | 10 to 100 | ≤ 1
Cc1cc(Nc2ncn(-c3cc(F)cc(F)c3)n2)c(F)c(N2CCN(CCO)CC2)c1 [Compound 1043, 2-[4-[3-[[1-(3,5-difluorophenyl)-1,2,4-triazol-3-yl]amino]-2-fluoro-5-methyl-phenyl]piperazin-1-yl]ethanol] | 10 to 100 | ≤ 1
[2H]C1([2H])N(C(C)=O)C([2H])([2H])C([2H])([2H])N(c2cc(C)cc(Nc3ncn(-c4cc(F)cc(F)c4)n3)c2)C1([2H])[2H] [Compound 1044, 1-[2,2,3,3,5,5,6,6-octadeuterio-4-[3-[[1-(3,5-difluorophenyl)-1,2,4-triazol-3-yl]amino]-5-methyl-phenyl]piperazin-1-yl]ethanone] | 1 to 10 | 1 to 10
Cc1cc(Nc2ncn(-c3cc(F)cc(F)c3)n2)cc(NC2CCN(CC3CCOC3)CC2)c1 (centres unmarked) [Compound 1045, N3-[1-(3,5-difluorophenyl)-1,2,4-triazol-3-yl]-5-methyl-N1-[1-(tetrahydrofuran-3-ylmethyl)-4-piperidyl]benzene-1,3-diamine] | 1 to 10 | ≤ 1
Cc1cc(NCC2CCN(C3CCOCC3)CC2)cc(Nc2ncn(-c3cc(F)cc(F)c3)n2)c1 [Compound 1046, N1-[1-(3,5-difluorophenyl)-1,2,4-triazol-3-yl]-5-methyl-N3-[(1-tetrahydropyran-4-yl-4-piperidyl)methyl]benzene-1,3-diamine] | 1 to 10 | ≤ 1
Cc1cc(Nc2ncn(-c3cc(F)cc(F)c3)n2)cc(N2CCN(CC3CCCN(C)C3)CC2)c1 (centres unmarked) [Compound 1047, 1-(3,5-difluorophenyl)-N-[3-methyl-5-[4-[(1-methyl-3-piperidyl)methyl]piperazin-1-yl]phenyl]-1,2,4-triazol-3-amine] | 1 to 10 | ≤ 1
Cc1cc(Nc2ncn(-c3cc(F)cc(F)c3)n2)cc(NC2CCOC3(CCOC3)C2)c1 (centres unmarked) [Compound 1048, N3-[1-(3,5-difluorophenyl)-1,2,4-triazol-3-yl]-N1-(2,6-dioxaspiro[4.5]decan-9-yl)-5-methyl-benzene-1,3-diamine] | 10 to 100 | ≤ 1
Cc1cc(Nc2ncn(-c3ccccc3)n2)cc(Nc2ncc(C)o2)c1 [Compound 1049, 5-methyl-N1-(5-methyloxazol-2-yl)-N3-(1-phenyl-1,2,4-triazol-3-yl)benzene-1,3-diamine] | 1 to 10 | 10 to 100
COCCN1CCCC(Nc2cc(C)cc(Nc3ncn(-c4cc(F)cc(F)c4)n3)c2)C1 (centres unmarked) [Compound 1050, N3-[1-(3,5-difluorophenyl)-1,2,4-triazol-3-yl]-N1-[1-(2-methoxyethyl)-3-piperidyl]-5-methyl-benzene-1,3-diamine] | 10 to 100 | ≤ 1
Cc1cc(Nc2ncn(-c3cc(F)cc(F)c3)n2)cc(N2CCCC2CS(C)(=O)=O)c1 (centres unmarked) [Compound 1051, 1-(3,5-difluorophenyl)-N-[3-methyl-5-[2-(methylsulfonylmethyl)pyrrolidin-1-yl]phenyl]-1,2,4-triazol-3-amine] | 10 to 100 | 1 to 10
Cc1cc(Nc2ncn(-c3cc(F)cc(F)c3)n2)cc(N2CCC(N3CCCC(O)C3)CC2)c1 (centres unmarked) [Compound 1054, 1-[1-[3-[[1-(3,5-difluorophenyl)-1,2,4-triazol-3-yl]amino]-5-methyl-phenyl]-4-piperidyl]piperidin-3-ol] | ≤ 1 | ≤ 1
CCC1CN(c2cc(C)cc(Nc3ncn(-c4cc(F)cc(F)c4)n3)c2)CCN1CC(C)O (centres unmarked) [Compound 1056, 1-[4-[3-[[1-(3,5-difluorophenyl)-1,2,4-triazol-3-yl]amino]-5-methyl-phenyl]-2-ethyl-piperazin-1-yl]propan-2-ol] | 1 to 10 | ≤ 1
Cc1cc(Nc2ncn(-c3cc(F)cc(F)c3)n2)cc(N2CCC3OCC3C2)c1 (centres unmarked) [Compound 1057, 1-(3,5-difluorophenyl)-N-[3-methyl-5-(8-oxa-4-azabicyclo[4.2.0]octan-4-yl)phenyl]-1,2,4-triazol-3-amine] | 1 to 10 | ≤ 1
Cc1cc(NC(=O)C2CC2)cc(Nc2ncn(-c3ccccc3)n2)c1 [Compound 1058, N-[3-methyl-5-[(1-phenyl-1,2,4-triazol-3-yl)amino]phenyl]cyclopropanecarboxamide] | 10 to 100 | 10 to 100
Cc1cc(Nc2ncn(-c3cc(F)cc(F)c3)n2)cc(NC(C)C2CC2)c1 (centres unmarked) [Compound 1059, N1-(1-cyclopropylethyl)-N3-[1-(3,5-difluorophenyl)-1,2,4-triazol-3-yl]-5-methyl-benzene-1,3-diamine] | 10 to 100 | ≤ 1
Cc1cc(Nc2ncn(-c3cc(F)cc(F)c3)n2)cc(N2CCC(N3CCCC3)C2)c1 (centres unmarked) [Compound 1060, 1-(3,5-difluorophenyl)-N-[3-methyl-5-(3-pyrrolidin-1-ylpyrrolidin-1-yl)phenyl]-1,2,4-triazol-3-amine] | 1 to 10 | ≤ 1
Cc1cc(NCC2COCCN2C)cc(Nc2ncn(-c3cc(F)cc(F)c3)n2)c1 (centres unmarked) [Compound 1062, N1-[1-(3,5-difluorophenyl)-1,2,4-triazol-3-yl]-5-methyl-N3-[(4-methylmorpholin-3-yl)methyl]benzene-1,3-diamine] | 10 to 100 | ≤ 1
CCOCCN1CCN(c2cc(C)cc(Nc3ncn(-c4cc(F)cc(F)c4)n3)c2)CC1C (centres unmarked) [Compound 1063, 1-(3,5-difluorophenyl)-N-[3-[4-(2-ethoxyethyl)-3-methyl-piperazin-1-yl]-5-methyl-phenyl]-1,2,4-triazol-3-amine] | 10 to 100 | ≤ 1
Cc1cc(Nc2ncn(-c3cc(F)cc(F)c3)n2)cc(NC2CCN(C3CCOC3)CC2)c1 (centres unmarked) [Compound 1064, N3-[1-(3,5-difluorophenyl)-1,2,4-triazol-3-yl]-5-methyl-N1-(1-tetrahydrofuran-3-yl-4-piperidyl)benzene-1,3-diamine] | 10 to 100 | ≤ 1
COC1CCCC1Nc1cc(C)cc(Nc2ncn(-c3cc(F)cc(F)c3)n2)c1 (centres unmarked) [Compound 1065, N3-[1-(3,5-difluorophenyl)-1,2,4-triazol-3-yl]-N1-(2-methoxycyclopentyl)-5-methyl-benzene-1,3-diamine] | 10 to 100 | 1 to 10
[2H]C1([2H])OC([2H])([2H])C([2H])([2H])N(c2cc(C)cc(Nc3ncn(-c4ccc(F)c(F)c4)n3)c2)C1([2H])[2H] [Compound 1066, 1-(3,4-difluorophenyl)-N-[3-methyl-5-(2,2,3,3,5,5,6,6-octadeuteriomorpholin-4-yl)phenyl]-1,2,4-triazol-3-amine] | 10 to 100 | ≤ 1
COCCN1CCN(c2cc(C)cc(Nc3ncn(-c4cc(F)cc(F)c4)n3)c2)CC1=O [Compound 1067, 4-[3-[[1-(3,5-difluorophenyl)-1,2,4-triazol-3-yl]amino]-5-methyl-phenyl]-1-(2-methoxyethyl)piperazin-2-one] | 1 to 10 | ≤ 1
COC1CCN(C2CCN(c3cc(C)cc(Nc4ncn(-c5cc(F)cc(F)c5)n4)c3)CC2)CC1 [Compound 1068, 1-(3,5-difluorophenyl)-N-[3-[4-(4-methoxy-1-piperidyl)-1-piperidyl]-5-methyl-phenyl]-1,2,4-triazol-3-amine] | 10 to 100 | 10 to 100
Cc1cc(Nc2ncn(-c3cc(F)cc(F)c3)n2)nc(OCC2COC2)c1 [Compound 1069, N-[1-(3,5-difluorophenyl)-1,2,4-triazol-3-yl]-4-methyl-6-(oxetan-3-ylmethoxy)pyridin-2-amine] | 1 to 10 | 1 to 10
